Measurements reported in US20240067632A1, “WEE1 Degrading Compounds and Uses Thereof” (Bristol-Myers Squibb Company, priority 2022, published 2024).
Where two headings read alike, the source gives them in different places.

What was measured:
[1] = test system: MKN45 cells; experiment: MKN45 cell proliferation assay (Cell-Titer-Glo, 120 h); format: cell-based; conditions: for EC50: Homo sapiens, MKN-45, 120 h, Cell-Titer-Glo, read-out: MKN45 Cell Prolif. 120 hr (EC50); for MKN45 Cell Prolif. 120 hr (Ymin-Obs): minimal percent of DMSO control observed in the concentrations tested
Summary of the method: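 Growth inhibition was read as blank-corrected Cell-Titer-Glo luminescence expressed as percent DMSO control after 120 h at 37 C, 400 cells/well. Compounds tested in triplicate as 10-point half-log series from 1 or 10 uM, 0.1% DMSO; four-parameter fit gave EC50, and lowest observed percent control was reported as Ymin-obs.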

[2] = target: T1, WEE1 (Homo sapiens, UniProt P30291+Q96SW2); experiment: WEE1-ePL degradation assay (LentiX-WEE1-ePL-GSPT1-ND cells, InCELL Hunter luminescence, 4 h); format: cell-based; conditions: 293T-LentiX WEE1-ePL cells; for DC50: read-out: 293T-LentiX WEE1-ePL Degradation 4 hr (EC50)
T1 construct: C-terminal ePL-tagged (DiscoverX, Fremont, CA) full-length WEE1 expression construct; expressed in transfected cells; host or cells: LentiX-HEK293T (Invitrogen), lentiviral transduction; co-expressing GSPT1-GN (G576N, lacking the first 158 amino acids)
Summary of the method: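 Degradation EC50 was fitted by a four-parameter logistic model, with the upper limit taken from DMSO wells. Luminescence was read with InCELL Hunter reagent after 30 min at room temperature, following a 4 h, 37° C exposure of 2500 cells/well. Cells were LentiX-HEK293T carrying ePL-tagged full-length WEE1, dosed in 10 points (3-fold) from 1 or 10 uM.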

[3] = lower limit of the fit (Ymin=0 luciferase inhibitor, Ymax DMSO control)
[4] = lower limit of the fit (0 = luciferase inhibitor, Ymax = DMSO control)

SMILES	EC50 [1]	293T-LentiX WEE1-ePL Degradation 4 hr (Ymin) [2, 3]	DC50 [2]	EC50 ([1]; growth inhibition)	293T-LentiX WEE1-ePL Degradation 4 hr (Ymin) [2, 4]	MKN45 Cell Prolif. 120 hr (Ymin-Obs) [1]
COC[C@@H]1CN(Cc2ccc3nc(C4CCOCC4)ncc3c2)C[C@H]1Oc1ccc2c(c1)CN([C@H]1CCC(=O)NC1=O)C2=O [(3S)-3-(5-{[(3S,4S)-4-(methoxymethyl)-1-{[2-(oxan-4-yl)quinazolin-6-yl]methyl}pyrrolidin-3-yl]oxy}-1-oxo-2,3-dihydro-1H-isoindol-2-yl)piperidine-2,6-dione]	4.9 nM	23.11	17.6 nM			8.813
O=C1CCC(N2Cc3cc(O[C@H]4CCN(Cc5cnc6ccc(F)cc6c5)C4)ccc3C2=O)C(=O)N1 (stereo partly drawn) [3-(5-{[(3S)-1-[(6-fluoroquinolin-3-yl)methyl]pyrrolidin-3-yl]oxy}-1-oxo-2,3-dihydro-1H-isoindol-2-yl)piperidine-2,6-dione]			9.19 nM	64.5 nM	30.015	16.03
CN1CC[C@@H](c2ncc3cc(CN4CC[C@H](Oc5ccc6c(c5)CN(C5CCC(=O)NC5=O)C6=O)C4)ccc3n2)C1 (stereo partly drawn) [3-(5-{[(3S)-1-({2-[(3R)-1-methylpyrrolidin-3-yl]quinazolin-6-yl}methyl)pyrrolidin-3-yl]oxy}-1-oxo-2,3-dihydro-1H-isoindol-2-yl)piperidine-2,6-dione]	48.4 nM	37.05	225 nM			13.19
O=C1CCC(N2Cc3cc(O[C@@H]4CN(Cc5ccc6nc(C7CCOCC7)ccc6c5)CC4(F)F)ccc3C2=O)C(=O)N1 (stereo partly drawn) [3-(5-{[(3R)-4,4-difluoro-1-{[2-(oxan-4-yl)quinolin-6-yl]methyl}pyrrolidin-3-yl]oxy}-1-oxo-2,3-dihydro-1H-isoindol-2-yl)piperidine-2,6-dione]			39.1 nM	21.3 nM	27.9	10.78
O=C1CCC(N2Cc3ccc(O[C@H]4CCN(Cc5ccc6ncccc6c5)C4)cc3C2=O)C(=O)N1 (stereo partly drawn) [3-(1-oxo-6-{[(3S)-1-[(quinolin-6-yl)methyl]pyrrolidin-3-yl]oxy}-2,3-dihydro-1H-isoindol-2-yl)piperidine-2,6-dione]				14.6 nM	88.79	82.37
CC(C)OCc1ccc2cc(CN3CC[C@H](Oc4ccc5c(c4)CN(C4CCC(=O)NC4=O)C5=O)C3)ccc2n1 (stereo partly drawn) [3-(1-oxo-5-{[(3S)-1-({2-[(propan-2-yloxy)methyl]quinolin-6-yl}methyl)pyrrolidin-3-yl]oxy}-2,3-dihydro-1H-isoindol-2-yl)piperidine-2,6-dione]			6.51 nM	3.4 nM	36	8.147
CO[C@H]1CC[C@H](c2ccc3cc(CN4CC[C@H](Oc5ccc6c(c5)CN(C5CCC(=O)NC5=O)C6=O)C4)ccc3n2)CC1 (stereo partly drawn) [3-(1-oxo-5-{[(3S)-1-({2-[(1r,4r)-4-methoxycyclohexyl]quinolin-6-yl}methyl)pyrrolidin-3-yl]oxy}-2,3-dihydro-1H-isoindol-2-yl)piperidine-2,6-dione]			1.88 nM	1.29 nM	26	11.035
CC1(C)C[C@@H](c2ccc3cc(CN4CC[C@H](Oc5ccc6c(c5)CN([C@H]5CCC(=O)NC5=O)C6=O)C4)cc(F)c3n2)CCO1 [(3S)-3-(5-{[(3S)-1-({2-[(4S)-2,2-dimethyloxan-4-yl]-8-fluoroquinolin-6-yl}methyl)pyrrolidin-3-yl]oxy}-1-oxo-2,3-dihydro-1H-isoindol-2-yl)piperidine-2,6-dione]	1.64 nM	28.17	3.8 nM			9.621
CC1(C)C[C@@H](c2ncc3cc(CN4CC[C@H](Oc5ccc6c(c5)CN([C@H]5CCC(=O)NC5=O)C6=O)C4)ccc3n2)CCO1 [(3S)-3-(5-{[(3S)-1-({2-[(4S)-2,2-dimethyloxan-4-yl]quinazolin-6-yl}methyl)pyrrolidin-3-yl]oxy}-1-oxo-2,3-dihydro-1H-isoindol-2-yl)piperidine-2,6-dione]	7.77 nM	26.33	24.9 nM			8.718

Second part, led by results:

EC50 [1]	293T-LentiX WEE1-ePL Degradation 4 hr (Ymin) [2, 3]	DC50 [2]	EC50 ([1]; growth inhibition)	293T-LentiX WEE1-ePL Degradation 4 hr (Ymin) [2, 4]	SMILES	MKN45 Cell Prolif. 120 hr (Ymin-Obs) [1]
		25.6 nM	> 10000 nM	58	O=C1CCC(N2Cc3cc(O[C@H]4CCN(Cc5ccc6ccccc6n5)C4)ccc3C2=O)C(=O)N1 (stereo partly drawn) [3-(1-oxo-5-{[(3S)-1-[(quinolin-2-yl)methyl]pyrrolidin-3-yl]oxy}-2,3-dihydro-1H-isoindol-2-yl)piperidine-2,6-dione]	81.45
		83.9 nM	> 10000 nM	64.5	Cc1ccc2cc(CN3C[C@@H](Oc4ccc5c(c4)CN(C4CCC(=O)NC4=O)C5=O)C[C@@H]3C)ccc2n1 (stereo partly drawn) [3-(5-{[(3S,5S)-5-methyl-1-[(2-methylquinolin-6-yl)methyl]pyrrolidin-3-yl]oxy}-1-oxo-2,3-dihydro-1H-isoindol-2-yl)piperidine-2,6-dione]	82.25
		3.53 nM	17.1 nM	26.545	NC(=O)c1ccc2cc(CN3CC[C@H](Oc4ccc5c(c4)CN(C4CCC(=O)NC4=O)C5=O)C3)ccc2n1 (stereo partly drawn) [6-{[(3S)-3-{[2-(2,6-dioxopiperidin-3-yl)-1-oxo-2,3-dihydro-1H-isoindol-5-yl]oxy}pyrrolidin-1-yl]methyl}quinoline-2-carboxamide]	10.71
8.91 nM	33.06	1.8 nM			O=C1CC[C@H](N2Cc3cc(O[C@H]4CCN(Cc5cc(C(F)(F)F)c6nc(N7CCOCC7)ncc6c5)C4)ccc3C2=O)C(=O)N1 [(3S)-3-(5-{[(3S)-1-{[2-(morpholin-4-yl)-8-(trifluoromethyl)quinazolin-6-yl]methyl}pyrrolidin-3-yl]oxy}-1-oxo-2,3-dihydro-1H-isoindol-2-yl)piperidine-2,6-dione]	3.502
		4.74 nM	1.95 nM	30	CO[C@@H]1CC[C@@H](c2ccc3cc(CN4CC[C@H](Oc5ccc6c(c5)CN(C5CCC(=O)NC5=O)C6=O)C4)ccc3n2)C1 (stereo partly drawn) [3-(5-{[(3S)-1-({2-[(1R,3R)-3-methoxycyclopentyl]quinolin-6-yl}methyl)pyrrolidin-3-yl]oxy}-1-oxo-2,3-dihydro-1H-isoindol-2-yl)piperidine-2,6-dione]	7.45
		3.31 nM	8.03 nM	41	CC1(C)COCC[C@H]1c1ccc2cc(CN3CC[C@H](Oc4ccc5c(c4)CN(C4CCC(=O)NC4=O)C5=O)C3)ccc2n1 (stereo partly drawn) [3-(5-{[(3S)-1-({2-[(4R)-3,3-dimethyloxan-4-yl]quinolin-6-yl}methyl)pyrrolidin-3-yl]oxy}-1-oxo-2,3-dihydro-1H-isoindol-2-yl)piperidine-2,6-dione]	11.03
		10.6 nM	4.27 nM	37	O=C1CCC(N2Cc3cc(O[C@H]4CCN(Cc5ccc6nc(NC7CCOCC7)ccc6c5)C4)ccc3C2=O)C(=O)N1 (stereo partly drawn) [3-(5-{[(3S)-1-({2-[(oxan-4-yl)amino]quinolin-6-yl}methyl)pyrrolidin-3-yl]oxy}-1-oxo-2,3-dihydro-1H-isoindol-2-yl)piperidine-2,6-dione]	7.78
23.8 nM	31.07	46.3 nM			O=C1CC[C@@H](N2Cc3cc(O[C@H]4CCN(Cc5ccc6nc(N7CCOCC7)ncc6c5)C4)ccc3C2=O)C(=O)N1 [(3R)-3-(5-{[(3S)-1-{[2-(morpholin-4-yl)quinazolin-6-yl]methyl}pyrrolidin-3-yl]oxy}-1-oxo-2,3-dihydro-1H-isoindol-2-yl)piperidine-2,6-dione]	17.43
		3.33 nM	5.28 nM	32.33	O=C1CCC(N2Cc3cc(O[C@H]4CCN(Cc5ccc6nc([C@H]7CCCOC7)ccc6c5)C4)ccc3C2=O)C(=O)N1 (stereo partly drawn) [3-(5-{[(3S)-1-({2-[(3R)-oxan-3-yl]quinolin-6-yl}methyl)pyrrolidin-3-yl]oxy}-1-oxo-2,3-dihydro-1H-isoindol-2-yl)piperidine-2,6-dione]	12.5
		14.7 nM	102 nM	26.505	O=C1CCC(N2Cc3cc(O[C@H]4CCN(Cc5cc6cccnc6cn5)C4)ccc3C2=O)C(=O)N1 (stereo partly drawn) [3-(5-{[(3S)-1-[(1,7-naphthyridin-6-yl)methyl]pyrrolidin-3-yl]oxy}-1-oxo-2,3-dihydro-1H-isoindol-2-yl)piperidine-2,6-dione]	9.59
